In patent US12054451B1, “Water soluble platinum (II) amino acid schiff base as an antitumor drug” (KING FAISAL UNIVERSITY, priority 2024, dated 2024):

Tested on: HepG-2 (Hepatocellular carcinoma)
Experiment: SRB (sulforhodamine-B-stain) anticancer assay, HepG-2
Format: cell-based
Conditions: Homo sapiens, HepG2, HepG-2 cells, 48 hours at 37° C., absorbance 564 nm
Protocol: Investigation for the bio-reactivity of PtL, as an antitumor candidate, was achieved versus well documented human cancer cell lines, as three cancers entitled HepG2, MCF-7, and HCT-116, using the simplest tool SRB (sulforhodamine-B-stain). In particular, the most popular anticancer referenced drug (vinblastine) was used in the anticancer assay (the inhibited action of the cancer cells) to compare its bio-reactivity versus that one of PtL. The antitumor reactivity of PtL was evaluated by IC50 concentrations (half effected concentration in μM) for inhibiting the growth of the tumor and normal cell lines of human in which IC50 concentrations were obtained from Eq. 1, below.
With HepG-2 (Hepatocellular carcinoma), HCT-116 (colon carcinoma), and MCF7 (breast adenocarcinoma), as human cancer cell lines, the antitumor potential of PtL was studied against their growth by applying a spectrometric tool. Using SRB (sulforhodamine-B-stain) was essential in the spectrometric studies at a specific wavelength (564 nm, the optimized absorption wavelength). Recording the corresponded absorbance (A) at 564 nm was accomplished using a UV/Vis. spectrophotometer, UV-1800 mode Shimadzu with a mono-cell holder. […]

An IC50 of 7.5 ± 0.1 µM was found for `CC[C@]1(O)C[C@@H]2CN(CCc3c([nH]c4ccccc34)[C@@](C(=O)OC)(c3cc4c(cc3OC)N(C)[C@H]3[C@@](O)(C(=O)OC)[C@H](OC(C)=O)[C@]5(CC)C=CCN6CC[C@]43[C@@H]65)C2)C1` [Vinblastine, vinblastine] in this work.
